We go through two compounds from PMC6631223, “Chain-Branched Polyhydroxylated Octahydro-1H-Indoles as Potential Leads against Lysosomal Storage Diseases” (Pharmaceuticals, 2019).

Marks after values point to notes of the source that are not given here.

Common to all, as to assay type: biochemical
The target of assay [1] is T1, Lactase (β-Galactosidase) (Rattus norvegicus, UniProt Q02401).
T1 construct: Brush border membranes were prepared from the rat small intestine; from tissue; host or cells: rat small intestine brush border membranes (inferred)
T1 sequence (Q02401 868-1928): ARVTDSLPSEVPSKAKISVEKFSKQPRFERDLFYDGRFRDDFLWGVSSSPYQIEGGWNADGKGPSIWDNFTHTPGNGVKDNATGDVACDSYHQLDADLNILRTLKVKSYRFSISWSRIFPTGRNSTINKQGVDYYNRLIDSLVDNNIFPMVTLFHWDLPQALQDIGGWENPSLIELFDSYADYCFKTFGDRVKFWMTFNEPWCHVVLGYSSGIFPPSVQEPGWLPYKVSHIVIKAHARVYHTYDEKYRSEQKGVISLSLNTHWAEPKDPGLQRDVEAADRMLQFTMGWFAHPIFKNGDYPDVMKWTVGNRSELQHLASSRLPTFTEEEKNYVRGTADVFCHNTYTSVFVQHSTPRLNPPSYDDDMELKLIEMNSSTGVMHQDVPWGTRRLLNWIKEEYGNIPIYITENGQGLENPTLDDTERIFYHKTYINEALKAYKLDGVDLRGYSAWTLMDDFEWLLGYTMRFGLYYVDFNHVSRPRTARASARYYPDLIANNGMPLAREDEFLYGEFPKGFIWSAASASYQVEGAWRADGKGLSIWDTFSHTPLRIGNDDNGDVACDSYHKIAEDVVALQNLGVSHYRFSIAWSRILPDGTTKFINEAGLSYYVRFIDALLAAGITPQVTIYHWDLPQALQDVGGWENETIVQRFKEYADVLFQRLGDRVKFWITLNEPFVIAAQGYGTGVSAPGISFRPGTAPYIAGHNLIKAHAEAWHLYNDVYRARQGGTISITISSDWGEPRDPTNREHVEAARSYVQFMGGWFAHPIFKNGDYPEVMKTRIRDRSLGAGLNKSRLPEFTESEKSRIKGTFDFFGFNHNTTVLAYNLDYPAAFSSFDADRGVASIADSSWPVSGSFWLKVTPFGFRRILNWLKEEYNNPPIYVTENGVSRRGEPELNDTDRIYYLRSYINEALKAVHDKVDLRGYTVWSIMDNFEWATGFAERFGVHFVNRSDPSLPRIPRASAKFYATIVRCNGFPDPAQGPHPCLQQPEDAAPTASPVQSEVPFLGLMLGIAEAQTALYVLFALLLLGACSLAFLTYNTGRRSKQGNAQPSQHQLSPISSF
As to the kind of experiment: Glycosidase inhibition: lactase. To be noted: read-out: inhibition % at 1000 μM. An excerpt: (§1) The enzymes α-glucosidase (from yeast, rice), β-glucosidase (from almonds, bovine liver), α-galactosidase (from coffee beans), β-galactosidase (from bovine liver), α-mannosidase (from jack beans), β-mannosidase (from snails), α-L-fucosidase (from bovine kidney), α-L-rhamnosidase (from Penicillium decumbens), β-glucuronidases (from Escherichia coli), α,α-trehalase (from porcine kidney), amyloglucosidase (from Aspergillus niger), p-nitrophenyl glycosides, and various disaccharides were purchased from Sigma-Aldrich Co. Brush border membranes were prepared from the rat small intestine according to the method of Kessler et al., and were assayed at pH 6.8 for rat intestinal maltase using maltose. For rat intestinal glucosidases and porcine kidney trehalase activities, the reaction mixture (0.2 mL) contained 25 mM substrate and the appropriate amount of enzyme, and the incubations were performed for 10 min at 37 °C. The reaction was stopped by heating at 100 °C for 3 min. After centrifugation (600 g; 10 min), 0.035 mL of the resulting reaction mixture were added to 2.1 mL of the Glucose CII-test Wako (Wako Pure Chemical Ind., Osaka, Japan). The absorbance at 505 nm was measured to determine the amount of the released D-glucose. Other glycosidase activities were determined using an appropriate p-nitrophenyl glycoside as substrate at the optimum pH of each enzyme. The reaction mixture (0.2 mL) contained 2 mM of the substrate and the appropriate amount of enzyme. The reaction was stopped by adding 0.4 mL of 400 mM Na2CO3. The released p-nitrophenol was measured spectrometrically at 400 nm.

Assay [2] addresses T2, α-L-Fucosidase (bovine kidney) (Bos taurus, UniProt Q2KIM0).
T2 construct: purchased Sigma-Aldrich Co; host or cells: bovine kidney
T2 sequence (Q2KIM0 23-468): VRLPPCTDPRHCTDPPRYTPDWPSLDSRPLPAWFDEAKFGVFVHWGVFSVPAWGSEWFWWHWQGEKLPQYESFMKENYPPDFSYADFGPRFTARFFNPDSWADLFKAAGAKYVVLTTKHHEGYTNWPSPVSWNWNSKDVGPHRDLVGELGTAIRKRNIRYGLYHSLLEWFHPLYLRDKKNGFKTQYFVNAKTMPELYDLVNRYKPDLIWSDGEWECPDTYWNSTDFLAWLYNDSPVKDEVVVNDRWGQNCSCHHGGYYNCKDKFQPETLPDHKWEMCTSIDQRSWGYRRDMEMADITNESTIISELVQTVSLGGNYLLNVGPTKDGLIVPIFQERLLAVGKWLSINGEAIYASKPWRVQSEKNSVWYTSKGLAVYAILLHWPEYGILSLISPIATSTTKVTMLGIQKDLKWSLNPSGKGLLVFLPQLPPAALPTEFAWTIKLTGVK
The assay can be described thus: Glycosidase inhibition: α-L-fucosidase (bovine kidney). Particulars: read-out: inhibition % at 1000 μM.
From the text: as §1

Assay [3] deals with T3, α,α-Trehalase (porcine kidney) (Sus scrofa, UniProt I3LIR5).
T3 construct: purchased Sigma-Aldrich Co; host or cells: porcine kidney
T3 sequence (I3LIR5 24-583): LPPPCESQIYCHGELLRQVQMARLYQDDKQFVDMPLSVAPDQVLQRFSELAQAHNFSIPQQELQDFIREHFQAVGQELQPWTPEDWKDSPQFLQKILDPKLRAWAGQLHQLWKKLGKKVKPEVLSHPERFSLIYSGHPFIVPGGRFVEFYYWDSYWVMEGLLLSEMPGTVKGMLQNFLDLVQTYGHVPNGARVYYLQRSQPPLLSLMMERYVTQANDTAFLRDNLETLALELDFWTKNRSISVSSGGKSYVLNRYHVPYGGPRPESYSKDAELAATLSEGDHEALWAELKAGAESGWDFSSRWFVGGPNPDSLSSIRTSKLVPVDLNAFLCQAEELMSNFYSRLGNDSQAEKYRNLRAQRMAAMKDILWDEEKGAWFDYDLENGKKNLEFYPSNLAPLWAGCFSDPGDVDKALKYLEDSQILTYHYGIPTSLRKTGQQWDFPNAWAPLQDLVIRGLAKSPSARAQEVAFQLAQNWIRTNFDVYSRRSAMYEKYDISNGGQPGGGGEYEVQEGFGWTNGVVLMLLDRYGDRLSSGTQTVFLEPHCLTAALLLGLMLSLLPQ
The assay can be described thus: Glycosidase inhibition: α,α-trehalase (porcine kidney). To be noted: read-out: inhibition % at 1000 μM.
From the text: as §1, with “After centrifugation (600 g; 10 min), 0.035 mL of the resulting reaction mixture were added to 2.1 mL of the Glucose CII-test Wako (Wako Pure Chemical Ind., Osaka, Japan).” left out, “The reaction mixture (0.2 mL) contained 2 mM of the substrate and the appropriate amount of enzyme. The reaction was stopped by adding 0.4 mL of 400 mM Na2CO3.” left out

In a further assay the target is T4, α-Glucosidase (rice) (Oryza sativa subsp. japonica, UniProt Q653V7).
T4 construct: purchased Sigma-Aldrich Co
As to the kind of experiment: Glycosidase inhibition: α-glucosidase (rice). Particulars: read-out: inhibition % at 1000 μM.
From the text: as §1

Another assay deals with β-Mannosidase (snail). As to the kind of experiment: Glycosidase inhibition: β-mannosidase (snail). Particulars: 1000 μM.
From the text: as §1

Another assay has as its target T5, β-Glucronidase (E.coli) (Escherichia coli, UniProt P05804).
T5 construct: purchased Sigma-Aldrich Co
The assay can be described thus: Glycosidase inhibition: β-glucuronidase (E. coli). Particulars: β-glucuronidase, E. coli; 1000 μM.
From the text: as §1

T5 sequence (P05804 whole entry): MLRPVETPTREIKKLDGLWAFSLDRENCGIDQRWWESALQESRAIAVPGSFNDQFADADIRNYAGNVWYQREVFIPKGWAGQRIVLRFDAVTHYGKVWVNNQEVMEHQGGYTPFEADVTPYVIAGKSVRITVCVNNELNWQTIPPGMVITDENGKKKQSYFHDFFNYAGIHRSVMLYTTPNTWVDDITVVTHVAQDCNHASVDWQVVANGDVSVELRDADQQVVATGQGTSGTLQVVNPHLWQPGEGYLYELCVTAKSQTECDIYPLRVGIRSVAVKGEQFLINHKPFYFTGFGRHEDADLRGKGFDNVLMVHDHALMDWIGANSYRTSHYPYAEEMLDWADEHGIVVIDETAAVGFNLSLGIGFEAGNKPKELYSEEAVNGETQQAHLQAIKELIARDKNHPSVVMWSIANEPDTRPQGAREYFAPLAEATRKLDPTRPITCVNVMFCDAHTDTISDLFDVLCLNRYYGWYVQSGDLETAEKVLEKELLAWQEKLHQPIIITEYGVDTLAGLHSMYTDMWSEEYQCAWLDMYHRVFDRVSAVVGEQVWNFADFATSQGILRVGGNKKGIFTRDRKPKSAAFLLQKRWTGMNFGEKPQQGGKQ
T4 sequence (Q653V7 34-885): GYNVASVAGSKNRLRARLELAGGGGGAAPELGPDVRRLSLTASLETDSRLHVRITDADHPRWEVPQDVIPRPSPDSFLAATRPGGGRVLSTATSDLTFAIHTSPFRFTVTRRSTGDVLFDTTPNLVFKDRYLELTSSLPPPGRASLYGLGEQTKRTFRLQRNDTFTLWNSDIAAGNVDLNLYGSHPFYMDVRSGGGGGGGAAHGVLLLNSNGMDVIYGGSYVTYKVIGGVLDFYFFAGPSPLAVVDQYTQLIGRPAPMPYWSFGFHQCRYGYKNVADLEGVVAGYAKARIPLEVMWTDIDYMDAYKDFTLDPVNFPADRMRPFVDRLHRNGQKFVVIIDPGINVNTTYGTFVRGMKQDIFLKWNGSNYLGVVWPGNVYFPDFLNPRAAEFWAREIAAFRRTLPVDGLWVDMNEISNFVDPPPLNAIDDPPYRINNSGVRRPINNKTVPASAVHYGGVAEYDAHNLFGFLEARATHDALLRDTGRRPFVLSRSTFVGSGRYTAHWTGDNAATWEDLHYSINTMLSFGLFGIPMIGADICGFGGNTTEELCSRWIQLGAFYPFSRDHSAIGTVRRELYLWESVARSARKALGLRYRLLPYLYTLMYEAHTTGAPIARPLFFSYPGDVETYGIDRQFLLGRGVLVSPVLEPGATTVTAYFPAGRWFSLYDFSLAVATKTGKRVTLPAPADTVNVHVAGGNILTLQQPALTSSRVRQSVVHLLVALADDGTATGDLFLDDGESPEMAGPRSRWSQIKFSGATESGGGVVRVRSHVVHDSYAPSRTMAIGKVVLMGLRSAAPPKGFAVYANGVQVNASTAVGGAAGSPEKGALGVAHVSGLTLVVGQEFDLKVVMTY

In general, inhibition refers to how much of the control response was suppressed. For the compound `CC[C@@H]1CN[C@H]2C[C@@H](O)[C@H](O)[C@@H](O)[C@H]12` [Compound 10, (3S,3aR,4S,5S,6R,7aS)-3-Ethyloctahydro-1H-indole-4,5,6-triol], the inhibition at 1000 µM turned out to be 0.6% in assay [1]; 7.5% in assay [2]; 0% in assay [3]; 0% at α-Glucosidase (rice); 18.1% on β-Glucronidase (E.coli). Further, the “inhibition % at 1000 μM” value in the assay on β-Mannosidase (snail) is 0% ^a.

As to `CC[C@H]1CN[C@H]2C[C@@H](O)[C@H](O)[C@@H](O)[C@H]12` [Compound 13, (3R,3aR,4S,5S,6R,7aS)-3-ethyloctahydro-1H-indole-4,5,6-triol], the inhibition at 1000 µM in assay [1] was 7.4%; in assay [2] it was 12.9%; in assay [3], 0%; at α-Glucosidase (rice), 0%; on β-Glucronidase (E.coli), 12.3%. In the assay on β-Mannosidase (snail), the “inhibition % at 1000 μM” value was found to be 2.3% ^a.
